These molecules were tested against DNA (cytosine-5)-methyltransferase 1 (Homo sapiens) (UniProt P26358) (assay: Inhibition of DNMT1 assessed as drug level causing inhibition by SPA).
DNA (cytosine-5)-methyltransferase 1 (Homo sapiens), sequence (P26358 whole entry): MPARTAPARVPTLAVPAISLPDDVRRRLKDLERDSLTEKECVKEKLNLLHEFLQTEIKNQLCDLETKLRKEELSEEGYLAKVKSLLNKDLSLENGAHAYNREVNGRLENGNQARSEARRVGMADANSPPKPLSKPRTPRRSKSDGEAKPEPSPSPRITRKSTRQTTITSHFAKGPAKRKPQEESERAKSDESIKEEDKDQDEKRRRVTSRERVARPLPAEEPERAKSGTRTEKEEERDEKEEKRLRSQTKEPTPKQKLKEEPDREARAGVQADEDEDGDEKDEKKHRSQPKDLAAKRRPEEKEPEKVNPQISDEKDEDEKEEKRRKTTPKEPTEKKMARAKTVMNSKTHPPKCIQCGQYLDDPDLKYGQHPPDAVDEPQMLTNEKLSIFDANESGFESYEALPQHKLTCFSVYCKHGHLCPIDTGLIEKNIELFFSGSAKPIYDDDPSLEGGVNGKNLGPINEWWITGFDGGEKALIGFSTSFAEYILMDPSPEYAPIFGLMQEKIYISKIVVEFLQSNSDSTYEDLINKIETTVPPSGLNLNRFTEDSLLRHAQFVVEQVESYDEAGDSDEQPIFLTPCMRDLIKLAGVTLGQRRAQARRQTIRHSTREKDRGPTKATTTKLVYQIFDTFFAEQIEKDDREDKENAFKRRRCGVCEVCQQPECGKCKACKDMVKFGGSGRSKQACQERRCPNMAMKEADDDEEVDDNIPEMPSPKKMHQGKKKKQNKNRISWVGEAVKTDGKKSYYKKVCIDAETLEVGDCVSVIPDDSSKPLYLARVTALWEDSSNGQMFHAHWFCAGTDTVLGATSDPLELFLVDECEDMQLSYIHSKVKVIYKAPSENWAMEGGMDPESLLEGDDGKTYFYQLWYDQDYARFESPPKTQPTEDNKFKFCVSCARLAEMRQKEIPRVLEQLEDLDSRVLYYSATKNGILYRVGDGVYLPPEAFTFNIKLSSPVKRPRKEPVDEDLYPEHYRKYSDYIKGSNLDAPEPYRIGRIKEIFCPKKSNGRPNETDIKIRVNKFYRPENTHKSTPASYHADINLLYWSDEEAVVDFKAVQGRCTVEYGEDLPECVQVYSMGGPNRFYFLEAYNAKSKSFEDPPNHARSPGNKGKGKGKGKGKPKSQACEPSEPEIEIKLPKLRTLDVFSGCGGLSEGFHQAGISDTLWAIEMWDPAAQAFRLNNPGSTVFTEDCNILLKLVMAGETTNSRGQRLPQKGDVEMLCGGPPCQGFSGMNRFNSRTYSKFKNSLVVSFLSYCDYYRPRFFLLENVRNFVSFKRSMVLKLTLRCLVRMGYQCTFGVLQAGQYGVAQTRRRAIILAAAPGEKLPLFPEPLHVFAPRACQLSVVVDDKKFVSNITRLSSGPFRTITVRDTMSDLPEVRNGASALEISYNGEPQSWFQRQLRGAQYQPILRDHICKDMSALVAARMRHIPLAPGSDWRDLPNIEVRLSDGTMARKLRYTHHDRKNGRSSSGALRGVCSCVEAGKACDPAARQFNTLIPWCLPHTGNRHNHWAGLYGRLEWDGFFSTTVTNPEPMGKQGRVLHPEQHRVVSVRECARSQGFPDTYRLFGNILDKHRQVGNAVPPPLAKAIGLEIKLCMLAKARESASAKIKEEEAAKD

Point of comparison: C=C(Cl)[C@](Cl)(CBr)CC[C@@H](Br)C(C)(C)Cl, Activity 1.25 µM. Against it:
- C=C(Cl)/C(=C\Br)CCC(Br)C(C)(C)Cl (centres undefined) — 44-fold higher, 55 µM
- C=C(Cl)/C(=C\Br)CCC(Br)=C(C)C — within 1.5-fold, 1.65 µM
- C=C[C@](Cl)(CBr)CC[C@@H](Br)C(C)(C)Cl — 18-fold higher, 21.9 µM

From ChEMBL document CHEMBL1157312, “DNA methyl transferase inhibiting halogenated monoterpenes from the Madagascar red marine alga Portieria hornemannii” (J Nat Prod, 2006)
